Data from US4847303A, “Tert-butylphenyl compounds useful as anti-inflammatory agents” (The Procter & Gamble Company, priority 1987, dated 1989).

Test system: Carrageenan Rat Paw Edema
Assay: Carrageenan Rat Paw Edema Test
Format: in vivo, rat (male Sprague-Dawley)
Settings: 100 mg/kg P.O.; carrageenan 1 h after dosing, paw volume 4 h after carrageenan; all values statistically significant from control at P ≤ 0.05
Protocol: Carrageenan Rat Paw Edema Test
Male Sprague-Dawley rats (Charles River Laboratories) are weighed and food fasted overnight. The animals are then divided into four to six groups of six animals each according to body weights (average about 145 g) so that each group has about the same average body weight (within 10 g).
The following morning animals are dosed with the test compound and then placed in individual cages. For oral dosing, the drug is suspended in 0.5% methyl cellulose with 2% Tween 80, and delivered via stomach tube in a 5 ml volume.
Paw volumes (0 time) are determined on both hind paws with a mercury displacement device equipped with a transducer and digitizer. One hour after dosing the test compound, the animals are placed in a plastic restrainer and 50 ul of a 1% (w/w) carrageenan solution in 0.9% saline is injected into the ventral surface of the left rear paw. Four hours after the carrageenan injection, the paw volumes are again determined.
The results are expressed as percent inhibition of the mean paw volume of the test group relative to the control group. Statistical differences are determined by one way analysis of variance.

Structure (SMILES)	Percent Inhibition at 100 mg/kg dosed P.O (mean paw volume of the test group relative to the control group)
C#CCCCC(=O)c1cc(C(C)(C)C)c(O)c(C(C)(C)CO)c1 [Example 2, 2-(2-hydroxy-1,1-dimethyl-ethyl)-4-(5'-hexynoyl)-6-t-butylphenol]	48.4%
C#CCCCC(=O)c1cc(C)c(O)c(C(C)(C)C)c1 [Example 1, 2-methyl-4-(5'-hexynoyl)-6-t-butylphenol]	75.4%
C#CCCCC(=O)c1cc(C(C)C=C)c(O)c(C(C)(C)C)c1 (stereo not drawn) [Example 5, 2-s-(3-butenyl)-4-(5'-hexynoyl)-6-t-butylphenol]	90.8%
C#CCCCC(=O)c1cc(CCC)c(O)c(C(C)(C)C)c1 [Example 4, 2-n-propyl-4-(5'-hexynoyl)-6-t-butylphenol]	53.2%
C#CCCCC(=O)c1cc(C(C)CC)c(O)c(C(C)(C)C)c1 (stereo not drawn) [Example 6, 2-s-butyl-4-(5'-hexynoyl)-6-t-butylphenol]	51.5%
C#CCCCC(=O)c1cc(CC=C)c(O)c(C(C)(C)C)c1 [Example 3, 1-Allyl-4-(5'-hexynoyl)-6-t-butylphenol]	65.8%
